{"source": "ChEMBL document CHEMBL3600349", "about": "(Bioorg Med Chem Lett, 2015)", "key": {"Rattus norvegicus": {"tested_on": "Rattus norvegicus", "test": "Antiobesity activity in diet-induced obese Wistar rat model assessed as reduction of body weight at 5 mg/kg, po qd after 4 weeks", "assay_type": "functional", "parameters": "scale not given: the % may be the effect or the level left"}, "[1]": {"test": "Lipophilicity, log P of the compound by HPLC analysis", "assay_type": "physicochemical"}, "U-937": {"tested_on": "U-937", "test": "Toxicity in human U937 cells assessed as first effect concentration for phospholipidosis by nile red uptake assay", "assay_type": "cell-based"}, "[2]": {"test": "Half life in rat liver microsomes", "assay_type": "ADME"}, "hERG (KCNH2)": {"biological_target": "hERG (KCNH2) (Homo sapiens, UniProt Q12809)", "sequence (Q12809 whole entry)": "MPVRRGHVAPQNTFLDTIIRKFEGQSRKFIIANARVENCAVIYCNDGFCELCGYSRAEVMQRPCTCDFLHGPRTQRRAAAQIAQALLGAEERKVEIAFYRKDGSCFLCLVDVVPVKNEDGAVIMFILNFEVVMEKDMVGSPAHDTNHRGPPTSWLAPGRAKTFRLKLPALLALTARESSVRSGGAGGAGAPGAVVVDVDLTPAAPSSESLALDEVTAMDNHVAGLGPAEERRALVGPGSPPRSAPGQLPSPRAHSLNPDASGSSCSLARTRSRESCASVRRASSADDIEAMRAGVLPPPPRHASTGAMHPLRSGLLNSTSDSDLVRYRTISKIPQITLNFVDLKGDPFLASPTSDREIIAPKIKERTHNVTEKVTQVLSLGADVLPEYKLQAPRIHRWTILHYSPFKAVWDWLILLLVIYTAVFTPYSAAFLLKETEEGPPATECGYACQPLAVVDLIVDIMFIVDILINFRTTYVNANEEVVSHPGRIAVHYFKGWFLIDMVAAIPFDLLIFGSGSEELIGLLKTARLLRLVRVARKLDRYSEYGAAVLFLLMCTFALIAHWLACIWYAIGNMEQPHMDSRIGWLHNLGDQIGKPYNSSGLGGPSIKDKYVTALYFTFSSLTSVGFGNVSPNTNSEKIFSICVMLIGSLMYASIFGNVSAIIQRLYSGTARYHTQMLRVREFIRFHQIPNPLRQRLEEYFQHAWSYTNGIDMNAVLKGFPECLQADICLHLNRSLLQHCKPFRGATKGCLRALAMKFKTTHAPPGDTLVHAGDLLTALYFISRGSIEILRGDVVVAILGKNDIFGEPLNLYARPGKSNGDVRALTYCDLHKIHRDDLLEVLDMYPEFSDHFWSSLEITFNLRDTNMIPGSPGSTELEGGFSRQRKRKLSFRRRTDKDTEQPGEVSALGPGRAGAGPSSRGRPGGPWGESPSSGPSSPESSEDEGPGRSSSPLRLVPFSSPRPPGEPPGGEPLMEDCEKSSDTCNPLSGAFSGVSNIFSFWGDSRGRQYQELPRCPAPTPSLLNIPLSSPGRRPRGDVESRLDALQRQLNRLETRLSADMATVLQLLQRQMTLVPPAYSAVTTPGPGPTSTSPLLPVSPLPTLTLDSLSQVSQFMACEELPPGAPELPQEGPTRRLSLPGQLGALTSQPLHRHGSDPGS", "test": "Inhibition of human ERG at 10 uM by patch clamp assay"}, "Homo sapiens [3]": {"organism": "Homo sapiens", "test": "Selectivity ratio, ratio of 5HT2A receptor (unknown origin) to human MCH-R1"}, "[4]": {"test": "Intrinsic clearance in human hepatocytes assessed per 10^6 cells", "assay_type": "ADME, cell-based, Hepatocyte", "details": "read-out: CLH"}, "Homo sapiens [5]": {"organism": "Homo sapiens", "test": "Selectivity ratio, ratio of muscarinic M1 receptor (unknown origin) to human MCH-R1"}, "[6]": {"biological_target": "Melanin-concentrating hormone receptor 1 (Homo sapiens, UniProt Q99705)", "sequence (Q99705 whole entry)": "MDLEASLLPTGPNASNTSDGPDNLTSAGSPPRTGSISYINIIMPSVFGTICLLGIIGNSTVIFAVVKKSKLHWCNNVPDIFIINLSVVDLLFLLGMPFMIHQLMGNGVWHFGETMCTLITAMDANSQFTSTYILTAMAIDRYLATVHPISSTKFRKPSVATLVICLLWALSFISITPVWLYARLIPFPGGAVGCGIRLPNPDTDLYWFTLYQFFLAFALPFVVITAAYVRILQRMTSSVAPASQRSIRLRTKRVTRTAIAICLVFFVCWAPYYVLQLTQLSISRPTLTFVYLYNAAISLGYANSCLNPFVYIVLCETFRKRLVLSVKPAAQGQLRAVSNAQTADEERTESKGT", "test": "Displacement of [125I]-MCH from human MCH-R1 expressed in CHO/Galpha16 cells after 60 mins by scintillation counting", "assay_type": "cell-based"}}, "note": "pIC50: −log10 of the molar value."}
{"smiles": "CC(C)CC(N(C)C)C1(c2ccc(Cl)cc2)CCC1", "note": "(stereo unspecified) [SIBUTRAMINE]", "values": [{"measurement": "Activity", "setting": "Rattus norvegicus", "value": 10.9, "unit": "%"}]}
{"smiles": "Cc1cc(CN(C)C)ccc1C(=O)Cn1ncc(OCc2ccc(Cl)cn2)cc1=O", "values": [{"measurement": "logP", "setting": "[1]", "value": 3.1}, {"measurement": "Activity", "setting": "U-937", "value": 50, "unit": "µM"}, {"measurement": "half-life", "setting": "[2]", "value": "> 45", "unit": "min"}]}
{"smiles": "Cc1cc(CN(C)C)ccc1C(=O)Cn1ccc(OCc2ccccc2)cc1=O", "values": [{"measurement": "logP", "setting": "[1]", "value": 3.3}, {"measurement": "inhibition at 10 µM", "setting": "hERG (KCNH2)", "value": 67, "unit": "%"}, {"measurement": "Ratio", "setting": "Homo sapiens [3]", "value": "> 200"}, {"measurement": "Activity", "setting": "U-937", "value": 50, "unit": "µM"}, {"measurement": "half-life", "setting": "[2]", "value": 24, "unit": "min"}, {"measurement": "hepatocyte CLint", "setting": "[4]", "value": 4, "unit": "µL/min/1e6 cells"}, {"measurement": "Ratio", "setting": "Homo sapiens [5]", "value": "> 200"}]}
{"smiles": "CN(C)Cc1ccc(CCn2ccc(OCc3ccccc3)cc2=O)cc1", "values": [{"measurement": "logP", "setting": "[1]", "value": 3.2}, {"measurement": "Activity", "setting": "U-937", "value": 100, "unit": "µM"}, {"measurement": "half-life", "setting": "[2]", "value": 5, "unit": "min"}, {"measurement": "pIC50", "setting": "[6]", "value": 8.15}]}
{"smiles": "CN(C)Cc1ccc(C(=O)Cn2ccc(OCc3ccccc3)cc2=O)cc1", "values": [{"measurement": "logP", "setting": "[1]", "value": 3}, {"measurement": "inhibition at 10 µM", "setting": "hERG (KCNH2)", "value": 63, "unit": "%"}, {"measurement": "Ratio", "setting": "Homo sapiens [3]", "value": "> 200"}, {"measurement": "Activity", "setting": "U-937", "value": 100, "unit": "µM"}, {"measurement": "half-life", "setting": "[2]", "value": 23, "unit": "min"}, {"measurement": "hepatocyte CLint", "setting": "[4]", "value": 24, "unit": "µL/min/1e6 cells"}, {"measurement": "Ratio", "setting": "Homo sapiens [5]", "value": "> 200"}, {"measurement": "pIC50", "setting": "[6]", "value": 7.89}]}
{"smiles": "CN(C)Cc1ccc(C(=O)Cn2ccc(OCc3ccc(Cl)cn3)cc2=O)cc1", "values": [{"measurement": "logP", "setting": "[1]", "value": 2.3}, {"measurement": "half-life", "setting": "[2]", "value": "> 45", "unit": "min"}, {"measurement": "hepatocyte CLint", "setting": "[4]", "value": 69, "unit": "µL/min/1e6 cells"}, {"measurement": "pIC50", "setting": "[6]", "value": 7.39}]}
{"smiles": "Cc1cc(CN(C)C)ccc1C(=O)Cn1ncc(OCc2ccc(Br)cn2)cc1=O", "values": [{"measurement": "logP", "setting": "[1]", "value": 3.4}, {"measurement": "Activity", "setting": "U-937", "value": 50, "unit": "µM"}, {"measurement": "half-life", "setting": "[2]", "value": 29, "unit": "min"}, {"measurement": "hepatocyte CLint", "setting": "[4]", "value": 12, "unit": "µL/min/1e6 cells"}]}
